Laboratory results reported in ChEMBL document CHEMBL2202954, “The effect of PLC-γ2 inhibitors on the growth of human tumour cells” (2012).

Columns and labels:
Format in all cases: functional
MDA-MB-468 = assay: Cytotoxicity against human MDA-MB-468 cells assessed as cellular growth at 10 uM by SRB assay
T47D = assay: Cytotoxicity against human T47D cells assessed as cellular growth at 10 uM by SRB assay
BT-549 = assay: Cytotoxicity against human BT549 cells assessed as cellular growth at 10 uM by SRB assay
Hs-578T = assay: Cytotoxicity against human Hs578T cells assessed as cellular growth at 10 uM by SRB assay
MDA-MB-231 = assay: Cytotoxicity against human MDA-MB-231 cells assessed as cellular growth at 10 uM by SRB assay
MCF7 = assay: Cytotoxicity against human MCF7 cells assessed as cellular growth at 10 uM by SRB assay
DU-145 = assay: Cytotoxicity against human DU145 cells assessed as cellular growth at 10 uM by SRB assay
UO-31 = assay: Cytotoxicity against human UO31 cells assessed as cellular growth at 10 uM by SRB assay
PC-3 = assay: Cytotoxicity against human PC3 cells assessed as cellular growth at 10 uM by SRB assay
TK-10 = assay: Cytotoxicity against human TK10 cells assessed as cellular growth at 10 uM by SRB assay
SN12C = assay: Cytotoxicity against human SN12C cells assessed as cellular growth at 10 uM by SRB assay
RXF 393 = assay: Cytotoxicity against human RXF393 cells assessed as cellular growth at 10 uM by SRB assay
ACHN = assay: Cytotoxicity against human ACHN cells assessed as cellular growth at 10 uM by SRB assay
CAKI-1 = assay: Cytotoxicity against human Caki1 cells assessed as cellular growth at 10 uM by SRB assay
A498 = assay: Cytotoxicity against human A498 cells assessed as cellular growth at 10 uM by SRB assay
786-0 = assay: Cytotoxicity against human 786-0 cells assessed as cellular growth at 10 uM by SRB assay
SK-OV-3 = assay: Cytotoxicity against human SKOV3 cells assessed as cellular growth at 10 uM by SRB assay
[1] = Cytotoxicity against human NCI-ADR-RES cells assessed as cellular growth at 10 uM by SRB assay
OVCAR-8 = assay: Cytotoxicity against human OVCAR8 cells assessed as cellular growth at 10 uM by SRB assay
OVCAR-3 = assay: Cytotoxicity against human OVCAR3 cells assessed as cellular growth at 10 uM by SRB assay
IGROV-1 = assay: Cytotoxicity against human IGROV1 cells assessed as cellular growth at 10 uM by SRB assay
UACC-62 = assay: Cytotoxicity against human UACC62 cells assessed as cellular growth at 10 uM by SRB assay
UACC-257 = assay: Cytotoxicity against human UACC257 cells assessed as cellular growth at 10 uM by SRB assay
SK-MEL-5 = assay: Cytotoxicity against human SK-MEL-5 cells assessed as cellular growth at 10 uM by SRB assay
SK-MEL-28 = assay: Cytotoxicity against human SK-MEL-28 cells assessed as cellular growth at 10 uM by SRB assay
SK-MEL-2 = assay: Cytotoxicity against human SK-MEL-2 cells assessed as cellular growth at 10 uM by SRB assay
MDA-MB-435 = assay: Cytotoxicity against human MDA-MB-435 cells assessed as cellular growth at 10 uM by SRB assay
M14 = assay: Cytotoxicity against human M14 cells assessed as cellular growth at 10 uM by SRB assay
Malme-3M = assay: Cytotoxicity against human MALME-3M cells assessed as cellular growth at 10 uM by SRB assay
LOX IMVI = assay: Cytotoxicity against human LOXIMVI cells assessed as cellular growth at 10 uM by SRB assay
U-251 = assay: Cytotoxicity against human U251 cells assessed as cellular growth at 10 uM by SRB assay
SNB-75 = assay: Cytotoxicity against human SNB75 cells assessed as cellular growth at 10 uM by SRB assay
SNB-19 = assay: Cytotoxicity against human SNB19 cells assessed as cellular growth at 10 uM by SRB assay
SF-539 = assay: Cytotoxicity against human SF539 cells assessed as cellular growth at 10 uM by SRB assay
SF-295 = assay: Cytotoxicity against human SF295 cells assessed as cellular growth at 10 uM by SRB assay
SF-268 = assay: Cytotoxicity against human SF268 cells assessed as cellular growth at 10 uM by SRB assay
SW-620 = assay: Cytotoxicity against human SW620 cells assessed as cellular growth at 10 uM by SRB assay
KM12 = assay: Cytotoxicity against human KM12 cells assessed as cellular growth at 10 uM by SRB assay
HT-29 = assay: Cytotoxicity against human HT-29 cells assessed as cellular growth at 10 uM by SRB assay
HCT-15 = assay: Cytotoxicity against human HCT15 cells assessed as cellular growth at 10 uM by SRB assay
HCT-116 = assay: Cytotoxicity against human HCT116 cells assessed as cellular growth at 10 uM by SRB assay
HCC 2998 = assay: Cytotoxicity against human HCC2998 cells assessed as cellular growth at 10 uM by SRB assay
NCI-H522 = assay: Cytotoxicity against human NCI-H522 cells assessed as cellular growth at 10 uM by SRB assay
COLO 205 = assay: Cytotoxicity against human COLO205 cells assessed as cellular growth at 10 uM by SRB assay
NCI-H460 = assay: Cytotoxicity against human NCI-H460 cells assessed as cellular growth at 10 uM by SRB assay
NCI-H322M = assay: Cytotoxicity against human NCI-H322M cells assessed as cellular growth at 10 uM by SRB assay
NCI-H226 = assay: Cytotoxicity against human NCI-H226 cells assessed as cellular growth at 10 uM by SRB assay
NCI-H23 = assay: Cytotoxicity against human NCI-H23 cells assessed as cellular growth at 10 uM by SRB assay
HOP-92 = assay: Cytotoxicity against human HOP92 cells assessed as cellular growth at 10 uM by SRB assay
EKVX = assay: Cytotoxicity against human EKVX cells assessed as cellular growth at 10 uM by SRB assay
HOP-62 = assay: Cytotoxicity against human HOP62 cells assessed as cellular growth at 10 uM by SRB assay
A549 = assay: Cytotoxicity against human A549 cells assessed as cellular growth at 10 uM by SRB assay
SR = assay: Cytotoxicity against human SR cells assessed as cellular growth at 10 uM by SRB assay
MOLT-4 = assay: Cytotoxicity against human MOLT4 cells assessed as cellular growth at 10 uM by SRB assay
RPMI-8226 = assay: Cytotoxicity against human RPMI8226 cells assessed as cellular growth at 10 uM by SRB assay
K562 = assay: Cytotoxicity against human K562 cells assessed as cellular growth at 10 uM by SRB assay
HL-60(TB) = assay: Cytotoxicity against human HL-60(TB) cells assessed as cellular growth at 10 uM by SRB assay
CCRF-CEM = assay: Cytotoxicity against human CCRF-CEM cells assessed as cellular growth at 10 uM by SRB assay
OVCAR-5 = assay: Cytotoxicity against human OVCAR5 cells assessed as cellular growth at 10 uM by SRB assay

## c1ccc(-c2nc(-c3cccs3)no2)cc1
MDA-MB-468
  Activity: 83.74%
T47D
  Activity: 65.5%
BT-549
  Activity: 105.93%
Hs-578T
  Activity: 100.69%
MDA-MB-231
  Activity: 77.5%
MCF7
  Activity: 52.58%
DU-145
  Activity: 103.67%
UO-31
  Activity: 88.86%
PC-3
  Activity: 96.07%
TK-10
  Activity: 97.25%
SN12C
  Activity: 91.08%
RXF 393
  Activity: 122.84%
ACHN
  Activity: 102.77%
CAKI-1
  Activity: 100.18%
A498
  Activity: 96.9%
786-0
  Activity: 107.03%
SK-OV-3
  Activity: 106.03%
[1]
  Activity: 116.69%
OVCAR-8
  Activity: 105.37%
OVCAR-3
  Activity: 105.28%
IGROV-1
  Activity: 83.5%
UACC-62
  Activity: 93.02%
UACC-257
  Activity: 103.2%
SK-MEL-5
  Activity: 97.58%
SK-MEL-28
  Activity: 117.87%
SK-MEL-2
  Activity: 103.18%
MDA-MB-435
  Activity: 113.41%
M14
  Activity: 111.09%
Malme-3M
  Activity: 131.39%
LOX IMVI
  Activity: 99.72%
U-251
  Activity: 94.72%
SNB-75
  Activity: 105.81%
SNB-19
  Activity: 108.69%
SF-539
  Activity: 105.74%
SF-295
  Activity: 128.58%
SF-268
  Activity: 105.23%
SW-620
  Activity: 101.1%
KM12
  Activity: 99.88%
HT-29
  Activity: 108.03%
HCT-15
  Activity: 94.44%
HCT-116
  Activity: 104.23%
HCC 2998
  Activity: 117.01%
NCI-H522
  Activity: 96.9%
COLO 205
  Activity: 114.24%
NCI-H460
  Activity: 102.91%
NCI-H322M
  Activity: 122.94%
NCI-H226
  Activity: 91.26%
NCI-H23
  Activity: 93.94%
HOP-92
  Activity: 75.75%
EKVX
  Activity: 102.25%
HOP-62
  Activity: 98.37%
A549
  Activity: 106.51%
SR
  Activity: 97.61%
MOLT-4
  Activity: 92.81%
RPMI-8226
  Activity: 102.22%
K562
  Activity: 100.51%
HL-60(TB)
  Activity: 103.76%
CCRF-CEM
  Activity: 97.84%

## CC1(C)CCc2cc(-c3ccn(S(=O)(=O)c4ccc(Cl)cc4)n3)ccc2O1
MDA-MB-468
  Activity: 48.91%
T47D
  Activity: 54.12%
BT-549
  Activity: 88.83%
Hs-578T
  Activity: 99.49%
MDA-MB-231
  Activity: 76.35%
MCF7
  Activity: 71.27%
DU-145
  Activity: 88.3%
UO-31
  Activity: 75.63%
PC-3
  Activity: 56.8%
TK-10
  Activity: 76.99%
SN12C
  Activity: 72.79%
RXF 393
  Activity: 89.02%
ACHN
  Activity: 89.36%
CAKI-1
  Activity: 64.29%
A498
  Activity: 70.82%
786-0
  Activity: 71.44%
SK-OV-3
  Activity: 91.35%
[1]
  Activity: 69.31%
OVCAR-8
  Activity: 86.61%
OVCAR-5
  Activity: 100.71%
OVCAR-3
  Activity: 84.01%
UACC-62
  Activity: 75.03%
UACC-257
  Activity: 64.88%
SK-MEL-5
  Activity: 47.2%
SK-MEL-28
  Activity: 94.67%
SK-MEL-2
  Activity: 92.25%
MDA-MB-435
  Activity: 85.81%
M14
  Activity: 80.11%
LOX IMVI
  Activity: 72.15%
U-251
  Activity: 74.2%
SNB-75
  Activity: 92.32%
SNB-19
  Activity: 100.09%
SF-539
  Activity: 101.35%
SF-295
  Activity: 78.68%
SF-268
  Activity: 90.72%
SW-620
  Activity: 87.74%
KM12
  Activity: 77%
HT-29
  Activity: 70.86%
HCT-15
  Activity: 91.33%
HCT-116
  Activity: 61.1%
HCC 2998
  Activity: 94.3%
NCI-H522
  Activity: 66.19%
COLO 205
  Activity: 116.9%
NCI-H460
  Activity: 73.79%
NCI-H322M
  Activity: 94.19%
NCI-H226
  Activity: 74.42%
NCI-H23
  Activity: 65.48%
HOP-92
  Activity: 8%
EKVX
  Activity: 54.5%
HOP-62
  Activity: 92.92%
A549
  Activity: 67.37%
SR
  Activity: 45.51%
MOLT-4
  Activity: 65.38%
RPMI-8226
  Activity: 52.06%
K562
  Activity: 52.43%
HL-60(TB)
  Activity: 71.91%
CCRF-CEM
  Activity: 64.16%
